Entries after “also recorded” stand apart in the source; their conditions may differ.
Tests used:
[1] = tested on: p-SMAD2 (Ser465/Ser467); test: Longitudinal PK/PD analysis of p-SMAD2 in A549 xenograft mouse model; type: in vivo, mice; settings: for percent p-SMAD2 levels compared to vehicle group: 50 mg/kg per oral gavage, normalized to GAPDH; for drug tumor and plasma exposure in vivo / time of peak p-SMAD2 suppression post dosing: single dose 50 mg/kg per oral gavage; for drug tumor and plasma exposure in vivo: A549 xenograft mice
Description: Accordingly, a longitudinal, twenty-two-hour, one-dose study was performed using Compound 04 and the commercially available ALK5 inhibitor vactosertib in an A549 xenograft mouse model. In this study, p-SMAD2 (Ser465/Ser467) and a housekeeping gene (GAPDH) were measured at ten timepoints from zero (established using vehicle-treated animals) up to twenty-two hours post dose for a single drug dose of fifty milligrams per kilogram per subject (three subjects per dosing group).
For this study, xenografts were prepared and implanted in mice as follows. At five weeks of age, female athymic nude mice (purchased from Charles River) were injected with approximately 2.1 million A549 cells (ATCC, CCL-185). Cells were harvested and resuspended in plain RPMI media (no phenol red added) and Matrigel (Corning 356237) at a one to one ratio, and two hundred-microliters of the cell suspension were injected into the right hind flank of each mouse. Tumors were measured every three days by caliper, and as tumors reached an average of seventy-eighty millimeters cubed, mice were randomized in groups of three subjects. Each of the test compounds (vactosertib, Compound 04) was resuspended in 1-methyl-2-pyrrolidinone (Sigma, 494496) (10%) plus 20% Solutol (Sigma 42966) in water (90%). The drug suspensions were sonicated for fifteen minutes to generate a fine particle suspension before being given to the test subjects. Subjects were dosed (per oral gavage) with the suspension. A vehicle control group with three mice was used to establish the baseline and timepoint zero of phospho-SMAD-2 in the tumor xenograft. The test compounds were administered to the respective subject groups at fifty milligrams per kilogram.
Samples were obtained post administration of test compounds at 30 minutes, one hour, two hours, four hours, six hours, eight hours, twelve hours, sixteen hours and twenty-two hours. Tumors were harvested, snap frozen and stored at negative eighty degrees Celsius until further processing. Plasma was collected from all animals by collecting whole blood via cardiac puncture, followed by centrifugation in tubes containing EDTA (BD, microtainer tubes, 365974). A group of three mice receiving vehicle only served as the zero timepoint for both drug groups. The phospho SMAD-2 levels were determined using the Bio-Plex Pro™ Phospho-Smad2 (Ser465/Ser467) Set (BioRad 171V50019M). The phospho SMAD-2 levels were normalized to GAPDH (MILLIPLEX MAP GAPDH Total Magnetic Bead MAPmate™, Millipore 46-667MAG) levels from each sample. All analytes were analyzed in a multiplex fashion with the Bio-Plex Pro Cell Signaling Reagent Kit (BioRad 171304006M). Frozen tumor samples (fifteen to thirty milligrams) were lysed in 100 μl lysis buffer, processed in a bead mill tube, and centrifuged. The resulting lysate was used at 1:50 dilution for the assay according to the manufacturer's instructions. Bead suspension was analyzed using the Luminex system (MAGPIX).
The study described in Example 8 was expanded to include Compound 01. Accordingly, using the same procedure for preparing test subjects and the ability of compounds tested to suppress TGF-beta signaling over time (as described in Example 8), a longitudinal, twenty-two-hour, one-dose study was performed using Compound 01, and the data were plotted alongside data obtained in Example 8 from Compound 04 and commercially available ALK5 inhibitor vactosertib, which were replotted in accordance with Example 10. For this expansion of the longitudinal study, p-SMAD2 (Ser465/Ser467) and housekeeping gene GAPDH were measured at ten timepoints from zero up to twenty-two hours post a single drug dose of fifty milligrams per kilogram per animal (three animals per group). A vehicle only treatment group of three mice was used to establish the baseline levels of p-SMAD2 in A549 xenograft tumor samples.
As in Example 8, xenografts were prepared and implanted in mice as follows. […]

[2] = tested on: phospho-SMAD2 (S465/S467); test: Phospho-SMAD2 assay in RDSR cells; type: cell-based; settings: Homo sapiens, 0.5 h, 100 ng/ml TGF-β1, 30 minutes
Description: TGF-β is a pleiotropic cytokine involved in extremely conserved pathways relevant to cell growth, differentiation, and development. TGF-β signaling is triggered when the activated TGF-β homodimer binds to the TGF-β receptor 2 (TGFbR2), which in turn leads to the recruitment and phosphorylation of TGF-β receptor 1 (TGFbR1). Activated TGFbR1 phosphorylates the signal transduction molecules SMAD2 and SMAD3, which then bind to the common mediator SMAD4 and translocate to the nucleus where they alter gene transcription. In this assay, phospho-SMAD2 (S465/S467), a direct phosphorylation substrate of TGFbR1, was used as a readout of TGF-β pathway activity. Vactosertib (a TGFbR1 inhibitor available from MedChem Express HY-19928) was included as a positive control.
The RD SMAD reporter (RDSR) cell line was generated by stably integrating the SMAD reporter plasmid (Promega, pGL4.48[luc2P/SBE/Hygro]) into the human rhabdomyosarcoma cell line RD (ATCC, CCL-136).
RDSR cells were seeded in DMEM (ATCC30-2002)+10% FBS in 96-well plate and allowed to grow overnight at 5% CO2 and 37° C. The next day, cells were pre-treated with Compound 04, Compound 01 or vactosertib at various concentrations, or with vehicle (DMSO), for one hour. Cells were then stimulated with recombinant human TGF-β1 (R&D Systems 7754-BH-005) at a final concentration of 100 ng/ml, in the presence of Compound 04, Compound 01, vactosertib, or DMSO for thirty minutes. A no-TGF-β1 stimulation condition was included for baseline phospho-SMAD2 level measurement.
The phospho-SMAD2 levels were determined using the Bio-Plex Pro™ Phospho-Smad2 (Ser465/Ser467) bead/antibody set (BioRad 171V50019M). Phospho-SMAD2 levels were normalized to ß-tubulin (MILLIPLEX MAP ß-Tubulin Total Magnetic Bead MAPmate™, Millipore 46-713MAG) or GAPDH (MILLIPLEX MAP GAPDH Total Magnetic Bead MAPmate™, Millipore 46-667MAG) levels from each sample. All samples were analyzed in a multiplex fashion with the Bio-Plex Pro Cell Signaling Reagent Kit (BioRad 171304006M). […] Bead suspension was analyzed using the Luminex system (MAGPIX). […]

| SMILES | percent p-SMAD2 levels compared to vehicle group ([1]; 0.5 h post dosing) | percent p-SMAD2 levels compared to vehicle group ([1]; 1 h post dosing) | percent p-SMAD2 levels compared to vehicle group ([1]; 2 h post dosing) | percent p-SMAD2 levels compared to vehicle group ([1]; 4 h post dosing) | percent p-SMAD2 levels compared to vehicle group ([1]; 6 h post dosing) | percent p-SMAD2 levels compared to vehicle group ([1]; 8 h post dosing) | percent p-SMAD2 levels compared to vehicle group ([1]; 12 h post dosing) | percent p-SMAD2 levels compared to vehicle group ([1]; 16 h post dosing) | percent p-SMAD2 levels compared to vehicle group ([1]; 22 h post dosing) | drug tumor and plasma exposure in vivo ([1]; 50 mg/kg) | IC50 [2] | time of peak p-SMAD2 suppression post dosing [1] | drug tumor and plasma exposure in vivo ([1]; listed as compound 04, 50 mg/kg) | drug tumor and plasma exposure in vivo [1] |
| --- | --- | --- | --- | --- | --- | --- | --- | --- | --- | --- | --- | --- | --- | --- |
| Cc1cccc(-c2[nH]c(CNc3ccccc3F)nc2-c2ccc3ncnn3c2)n1 [Vactosertib, vactosertib, reference compound] | 53% | 14% | 21% | 32% | 67% | 65% | 89.1% | 74.6% | 101.1% | quickly cleared from the system; also recorded: quickly cleared from the mice | < 200 nM |  |  |  |
| Clc1cccc2c(Nc3ccnc(Nc4cccc(N5CCOCC5)c4)c3)cnnc12 [Compound 04, N4-(8-chlorocinnolin-4-yl)-N2-[3-(morpholin-4-yl)phenyl]pyridine-2,4-diamine] | 55% | 24% |  | 14% | 22% | 57% | 95.0% | 81.9% | 91.4% | longer drug tumor and plasma exposure in vivo than vactosertib | < 200 nM | two | longer drug tumor and plasma exposure in vivo |  |
| Cc1nn(CC(F)(F)F)cc1Nc1cc(Nc2cnnc3c(C)cccc23)ccn1 [Compound 01, N2-[3-methyl-1-(2,2,2-trifluoroethyl)-1H-pyrazol-4-yl]-N4-(8-methylcinnolin-4-yl)pyridine-2,4-diamine] | 57% | 37% | 24% | 30% | 59% | 76% | 89.2% | 82.1% | 86.5% |  | < 200 nM | 2 h |  | longer drug tumor and plasma exposure in vivo |

Source: US20240197729A1, “ALK-5 Inhibitors and Uses Thereof” (Sumitomo Pharma Oncology, Inc., priority 2021, published 2024)
